Data as given in patent US9688675B2, “1,7-naphthyridine derivatives” (Hoffmann-La Roche Inc., priority 2013, dated 2017).

Tested on: human embryonic stem cell derived neural stem cells (NSCs)
Experiment: Neural Stem Cell Proliferation Assay (Neurogenesis Assay, ATP levels by CellTiterGlo)
Format: cell-based
Details: 96 h, compound concentration at which 150% activity of control (100%) is reached, NSC proliferation, 4 days incubation
Experimental: Neural Stem Cell Proliferation Assay
Neurogenic properties of small molecules are determined based on the proliferation of human embryonic stem cell derived neural stem cells (NSCs) which were derived via a dual smad inhibition as previously described (Chambers, S. M., et al., Highly efficient neural conversion of human ES and iPS cells by dual inhibition of SMAD signaling, Nature biotechnology, 2009. 27(3): p. 275-80.)
Compounds respond is measured by the increase in cells based on ATP levels
(Promega:CellTiterGlo®) after an incubation period of 4 days.
NSCs are thawed and expanded over 3 passages. On the 14th day, NSCs are seeded in Polyornithin/Laminin coated 384 well plates at a cell density of 21′000 cells/cm^2 in a media volume of 38 μl.
4 hours after cell seeding, compound solutions are added at a volume of 2 μl. Stock solutions of the compounds (water, 5% DMSO) are diluted to obtain a dose response (11 points, dilution factor is 2), ranging from 8 μM to 8 nM. Controls are run to consistently determine the neurogenic properties of the cells:
Negative (neutral) control is cell culture Media (final DMSO concentration: 0.25%).
Positive controls are: • 1. cell culture Media+100 ng/ml FGF2 (final DMSO concentration: 0.1%) • 2. cell culture Media+20 ng/ml EGF (final DMSO concentration: 0.1%) • 3. cell culture Media+100 ng/ml Wnt3a (final DMSO concentration: 0.1%)
After 4 days incubation at 37° C., 5% CO2, the amount of ATP per well is quantified. The ATP concentration is proportional to the cell number. ATP is quantified by using the Promega CellTiterGlo® kit. The CellTiterGlo® reagents contain a cell lysis buffer, a thermo stable luciferase (UltraGlo™ recombinant luciferase), magnesium and luciferin. Luciferin reacts with ATP producing oxyluciferin, AMP and light. The luminescence signal is proportional to the ATP content.
The value of negative (neutral) control is determined for each assay plate by taking the average of 16 negative control wells. The neurogenic compound response is calculated for each compound as (compound/Negative Control)*100.
The values of EC150 from the dose response curve are determined for each test compound. The EC150 is the compound concentration at which 150% activity of control (100%) is reached.

SMILES	EC (150% of control) [µM]
N#Cc1ccc(-c2cncc3ncc(C(N)=O)cc23)cc1 [Example 8, 5-(4-Cyanophenyl)-1,7-naphthyridine-3-carboxamide]	1.37
NC(=O)c1cnc2cncc(-c3ccc(F)c(F)c3)c2c1 [Example 6, 5-(3,4-Difluorophenyl)-1,7-naphthyridine-3-carboxamide]	0.55
CS(=O)(=O)c1cccc(CNC(=O)c2cnc3cncc(-c4ccc(Cl)cc4)c3c2)c1 [Example 19, 5-(4-Chlorophenyl)-N-(3-(methylsulfonyl)benzyl)-1,7-naphthyridine-3-carboxamide]	3.18
NC(=O)c1cnc2cncc(N3CCOCC3)c2c1 [Example 16, 5-Morpholino-1,7-naphthyridine-3-carboxamide]	1.43
NC(=O)c1cnc2cncc(-c3ccc(C(F)(F)F)cc3)c2c1 [Example 10, 5-(4-(Trifluoromethyl)phenyl)-1,7-naphthyridine-3-carboxamide]	0.3
O=C(NCC(F)(F)F)c1cnc2cncc(-c3ccc(F)cc3F)c2c1 [Example 15, 5-(2,4-Difluorophenyl)-N-(2,2,2-trifluoroethyl)-1,7-naphthyridine-3-carboxamide]	1.36
NC(=O)c1cnc2cncc(-c3ccc(F)cc3)c2c1 [Example 5, 5-(4-Fluorophenyl)-1,7-naphthyridine-3-carboxamide]	1.1
NC(=O)c1cnc2cncc(-c3ccc(OC(F)(F)F)cc3)c2c1 [Example 2, 5-(4-(Trifluoromethoxy)phenyl)-1,7-naphthyridine-3-carboxamide]	0.47
COCCNC(=O)c1cnc2cncc(-c3ccc(Cl)cc3)c2c1 [Example 21, 5-(4-Chlorophenyl)-N-(2-methoxyethyl)-1,7-naphthyridine-3-carboxamide]	4.6
COc1cccc(-c2cncc3ncc(C(N)=O)cc23)c1 [Example 22, 5-(3-Methoxyphenyl)-1,7-naphthyridine-3-carboxamide]	1.93
NC(=O)c1cnc2cncc(-c3ccc(Cl)cc3Cl)c2c1 [Example 28, 5-(2,4-Dichlorophenyl)-1,7-naphthyridine-3-carboxamide]	0.46
NC(=O)c1cnc2cncc(-c3cccc(OC(F)(F)F)c3)c2c1 [Example 23, 5-(3-(Trifluoromethoxy)phenyl)-1,7-naphthyridine-3-carboxamide]	5.73
CS(=O)(=O)CCNC(=O)c1cnc2cncc(-c3ccc(Cl)cc3F)c2c1 [Example 13, 5-(4-Chloro-2-fluorophenyl)-N-(2-(methylsulfonyl)ethyl)-1,7-naphthyridine-3-carboxamide]	1.51
CS(=O)(=O)c1ccc(-c2cncc3ncc(C(N)=O)cc23)cc1 [Example 9, 5-(4-(Methylsulfonyl)phenyl)-1,7-naphthyridine-3-carboxamide]	1.58
COC(=O)c1cncc2ncc(C(N)=O)cc12 [Example 24, Methyl 3-carbamoyl-1,7-naphthyridine-5-carboxylate]	3.2
NC(=O)c1cnc2cncc(-c3cc(F)c(F)c(F)c3)c2c1 [Example 4, 5-(3,4,5-Trifluorophenyl)-1,7-naphthyridine-3-carboxamide]	1.9
NC(=O)c1cnc2cncc(C3=CCOCC3)c2c1 [Example 25, 5-(3,6-Dihydro-2H-pyran-4-yl)-1,7-naphthyridine-3-carboxamide]	4.41
NC(=O)c1cnc2cncc(-c3ccc(F)cc3F)c2c1 [Example 7, 5-(2,4-Difluorophenyl)-1,7-naphthyridine-3-carboxamide]	0.48
NC(=O)c1cnc2cncc(-c3ccc(Cl)cc3)c2c1 [Example 1, 5-(4-Chlorophenyl)-1,7-naphthyridine-3-carboxamide]	0.09
Cc1nc2cncc(-c3ccc(Cl)cc3)c2cc1C(N)=O [Example 11, 5-(4-Chlorophenyl)-2-methyl-1,7-naphthyridine-3-carboxamide]	0.12
O=C(NCC1CC1)c1cnc2cncc(-c3ccc(Cl)cc3)c2c1 [Example 20, 5-(4-Chlorophenyl)-N-(cyclopropylmethyl)-1,7-naphthyridine-3-carboxamide]	4.24
NC(=O)c1cnc2cncc(N3CCC(F)(F)CC3)c2c1 [Example 26, 5-(4,4-Difluoropiperidin-1-yl)-1,7-naphthyridine-3-carboxamide]	2.09
CS(=O)(=O)c1ccc(CNC(=O)c2cnc3cncc(-c4ccc(Cl)cc4)c3c2)cc1 [Example 18, 5-(4-Chlorophenyl)-N-(4-(methylsulfonyl)benzyl)-1,7-naphthyridine-3-carboxamide]	0.25
O=C(NCC(F)(F)F)c1cnc2cncc(-c3ccccc3F)c2c1 [Example 14, 5-(2-Fluorophenyl)-N-(2,2,2-trifluoroethyl)-1,7-naphthyridine-3-carboxamide]	1.21
O=C(NCC(F)(F)F)c1cnc2cncc(-c3ccc(F)cc3)c2c1 [Example 17, 5-(4-Fluorophenyl)-N-(2,2,2-trifluoroethyl)-1,7-naphthyridine-3-carboxamide]	1.13
NC(=O)c1cnc2cncc(-c3ccc(Cl)cc3F)c2c1 [Example 12, 5-(4-Chloro-2-fluorophenyl)-1,7-naphthyridine-3-carboxamide]	0.07
NC(=O)c1cnc2cncc(-c3ccc(Cl)nc3)c2c1 [Example 27, 5-(6-Chloropyridin-3-yl)-1,7-naphthyridine-3-carboxamide]	1.08
NC(=O)c1cnc2cncc(-c3ccccc3F)c2c1 [Example 3, 5-(2-Fluorophenyl)-1,7-naphthyridine-3-carboxamide]	1.12
